Test results: PubChem BioAssay AID1963874 (Molecular Pharmacology Branch, DTP, NCI, 2024)

System: 253994-281-T-J1-PDC KRAS-mutant spheroids with HUVEC/MSC, viability
Assay: Anticancer human tumor 253994-281-T-J1-PDC patient-derived colorectal carcinoma cell line growth inhibition [KRAS2]
Conditions: for IC50: curve of first compound; for viability, T/C: stronger effect = lower value
Outline: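 KRAS-mutant tumor cells were grown as spheroids with HUVEC endothelial cells and human MSCs as stroma. Targeted agents were tested alone and with KRAS pathway inhibitors. Doses started at or near clinical Cmax, or 10 microM, descending half-log.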

[1] = second compound 0.1 µM, first compound 0.000316 µM
[2] = second compound 0.1 µM, first compound 0.001 µM
[3] = second compound 0.1 µM, first compound 0.00316 µM
[4] = second compound 0.1 µM, first compound 0.01 µM
[5] = second compound 0.1 µM, first compound 0.0316 µM
[6] = second compound 0.316 µM, first compound 0.000316 µM
[7] = second compound 0.316 µM, first compound 0.001 µM
[8] = second compound 0.316 µM, first compound 0.00316 µM
[9] = second compound 0.316 µM, first compound 0.01 µM
[10] = second compound 0.316 µM, first compound 0.0316 µM
[11] = second compound 1 µM, first compound 0.000316 µM
[12] = second compound 1 µM, first compound 0.001 µM
[13] = second compound 1 µM, first compound 0.00316 µM
[14] = second compound 1 µM, first compound 0.01 µM
[15] = second compound 1 µM, first compound 0.0316 µM
[16] = second compound 3.16 µM, first compound 0.000316 µM
[17] = second compound 3.16 µM, first compound 0.001 µM
[18] = second compound 3.16 µM, first compound 0.00316 µM
[19] = second compound 3.16 µM, first compound 0.01 µM
[20] = second compound 3.16 µM, first compound 0.0316 µM
[21] = second compound 10 µM, first compound 0.000316 µM
[22] = second compound 10 µM, first compound 0.001 µM
[23] = second compound 10 µM, first compound 0.00316 µM
[24] = second compound 10 µM, first compound 0.01 µM
[25] = second compound 10 µM, first compound 0.0316 µM
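Further: spheroids exposed to agents for seven days before readout.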
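Wherever viability, T/C is given: percent of DMSO vehicle control viability.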

CC(=O)Nc1cccc(-n2c(=O)n(C3CC3)c(=O)c3c(Nc4ccc(I)cc4F)n(C)c(=O)c(C)c32)c1 + CC1OCC2(CCN(c3cnc(Sc4ccnc(N)c4Cl)c(N)n3)CC2)C1N
IC50 (second compound 0.1 µM): 0.565 nM
IC50 (second compound 0.316 µM): 0.205 nM
IC50 (second compound 1 µM): < 0.1 nM
IC50 (second compound 3.16 µM): < 0.1 nM
IC50 (second compound 10 µM): < 0.1 nM
viability, T/C (second compound 0.1 µM, first compound 0.0001 µM): 64.3%
viability, T/C [1]: 68.6%
viability, T/C [2]: 34.1%
viability, T/C [3]: 17.9%
viability, T/C [4]: 10.1%
viability, T/C [5]: 5.82%
viability, T/C (second compound 0.316 µM, first compound 0.0001 µM): 63.1%
viability, T/C [6]: 42.8%
viability, T/C [7]: 22.3%
viability, T/C [8]: 14.1%
viability, T/C [9]: 8.18%
viability, T/C [10]: 4.42%
viability, T/C (second compound 1 µM, first compound 0.0001 µM): 40.5%
viability, T/C [11]: 27.7%
viability, T/C [12]: 14.1%
viability, T/C [13]: 9.38%
viability, T/C [14]: 7.13%
viability, T/C [15]: 4.04%
viability, T/C (second compound 3.16 µM, first compound 0.0001 µM): 29.3%
viability, T/C [16]: 23.6%
viability, T/C [17]: 10.8%
viability, T/C [18]: 5.83%
viability, T/C [19]: 6.59%
viability, T/C [20]: 3.09%
viability, T/C (second compound 10 µM, first compound 0.0001 µM): 16.5%
viability, T/C [21]: 7.93%
viability, T/C [22]: 5.92%
viability, T/C [23]: 4.52%
viability, T/C [24]: 3.06%
viability, T/C [25]: 2.51%

CN(C)C/C=C/C(=O)Nc1cc2c(Nc3ccc(F)c(Cl)c3)ncnc2cc1O[C@H]1CCOC1 + CC1OCC2(CCN(c3cnc(Sc4ccnc(N)c4Cl)c(N)n3)CC2)C1N
IC50 (second compound 0.1 µM): > 100 nM
IC50 (second compound 0.316 µM): 86.5 nM
IC50 (second compound 1 µM): > 100 nM
IC50 (second compound 3.16 µM): < 0.316 nM
IC50 (second compound 10 µM): > 100 nM
viability, T/C [1]: 85.5%
viability, T/C [2]: 74.8%
viability, T/C [3]: 91.2%
viability, T/C [4]: 79.3%
viability, T/C [5]: 81.4%
viability, T/C (second compound 0.1 µM, first compound 0.1 µM): 58.5%
viability, T/C [6]: 57.1%
viability, T/C [7]: 72.1%
viability, T/C [8]: 79.6%
viability, T/C [9]: 70.6%
viability, T/C [10]: 74%
viability, T/C (second compound 0.316 µM, first compound 0.1 µM): 47%
viability, T/C [11]: 79%
viability, T/C [12]: 97%
viability, T/C [13]: 79.5%
viability, T/C [14]: 86.3%
viability, T/C [15]: 86.2%
viability, T/C (second compound 1 µM, first compound 0.1 µM): 83.5%
viability, T/C [16]: 31.1%
viability, T/C [17]: 37.2%
viability, T/C [18]: 37.3%
viability, T/C [19]: 42.9%
viability, T/C [20]: 37.6%
viability, T/C (second compound 3.16 µM, first compound 0.1 µM): 31.4%
viability, T/C [21]: 75.4%
viability, T/C [22]: 102%
viability, T/C [23]: 78.1%
viability, T/C [24]: 106%
viability, T/C [25]: 83.7%
viability, T/C (second compound 10 µM, first compound 0.1 µM): 65.7%
